# How the values were obtained:
# [1] = biological target: GDP-bound HRAS wild-type protein (Homo sapiens, UniProt P01112); test: Binding to HRAS by surface plasmon resonance (SPR), Single Cycle Kinetics; details: SPR; KD ratio class
# [2] = tested on: human lung cancer strain NCI-H441; test: cells; details: NCI-H441, 96 h, read-out: NCI-H441 IC50 (nM)
# [3] = biological target: GDP-bound NRAS wild-type protein (Homo sapiens, UniProt P01111); test: Binding to NRAS by surface plasmon resonance (SPR), Single Cycle Kinetics; details: SPR; KD ratio class
# Chain of GDP-bound NRAS wild-type protein (P01111 whole entry): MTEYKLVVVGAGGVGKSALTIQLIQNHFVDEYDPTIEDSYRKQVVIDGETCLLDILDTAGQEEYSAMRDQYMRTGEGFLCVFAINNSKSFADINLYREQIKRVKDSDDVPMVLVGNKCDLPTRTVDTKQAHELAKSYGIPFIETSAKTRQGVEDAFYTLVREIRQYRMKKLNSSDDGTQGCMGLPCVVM
# Chain of GDP-bound HRAS wild-type protein (P01112 whole entry): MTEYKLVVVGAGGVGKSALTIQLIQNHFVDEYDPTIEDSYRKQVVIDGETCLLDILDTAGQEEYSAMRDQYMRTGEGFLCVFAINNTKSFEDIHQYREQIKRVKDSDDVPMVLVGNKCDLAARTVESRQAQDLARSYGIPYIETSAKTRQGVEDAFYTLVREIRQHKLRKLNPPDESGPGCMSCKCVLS
SMILES,IC50 [2] [nM],HRAS/KRAS (ratio of KD value for GDP-bound HRAS wild-type protein to KD value for KRAS) [1],NRAS/KRAS (ratio of KD value for GDP-bound NRAS wild-type protein to KD value for KRAS) [3]
CC[C@H](C)[C@@H]1NC(=O)[C@H](CC2CCC2)N(C)C(=O)C[C@@H](C(=O)N(C)C)N(C)C(=O)[C@H](C2CCCC2)N(C)C(=O)C2(CCCC2)NC(=O)[C@@H]2CCCN2C(=O)[C@H](CCc2cc(F)c(C(F)(F)F)c(F)c2)NC(=O)CN(C)C(=O)[C@H](Cc2ccc(C(F)(F)F)cc2)N2C[C@H](C)CC[C@@H](C2=O)N(C)C(=O)CN(C)C1=O [PP1386],4.2,B (a compound having 3 or more and less than 10 is denoted as B),B (a compound having 3 or more and less than 10 is denoted as B)
CCO[C@@H]1C[C@H]2C(=O)NC3(CCC3)C(=O)N(C)[C@@H](C3CCCC3)C(=O)N(C)[C@H](C(=O)N(C)C)CC(=O)N(C)[C@@H](CC3CCCC3)C(=O)N[C@@H]([C@@H](C)CC)C(=O)N(C)CC(=O)N(C)[C@H]3C/C=C\CCN(C3=O)[C@@H](Cc3ccc(F)cc3)C(=O)N(C)CC(=O)N[C@@H](CCc3ccc4sccc4c3)C(=O)N2C1 [PP1390],305,A (a compound having 10 or more and less than 20 is denoted as A),A (a compound having 10 or more and less than 20 is denoted as A)
CCO[C@@H]1C[C@H]2C(=O)NC3(CCC3)C(=O)N(C)[C@@H](C3CCCC3)C(=O)N(C)[C@H](C(=O)N3CCCC3)CC(=O)N(C)[C@@H](CC3CCCC3)C(=O)N[C@@H]([C@@H](C)CC)C(=O)N(C)CC(=O)N(C)[C@H]3C/C=C\CCN(C3=O)[C@@H](Cc3ccc(F)cc3)C(=O)N(C)CC(=O)N[C@@H](CCc3ccc4sccc4c3)C(=O)N2C1 [PP1391],271,A (a compound having 10 or more and less than 20 is denoted as A),A (a compound having 10 or more and less than 20 is denoted as A)
CCO[C@@H]1C[C@H]2C(=O)NC3(CCC3)C(=O)N(C)[C@@H](C3CCCC3)C(=O)N(C)[C@H](C(=O)N3CCOCC3)CC(=O)N(C)[C@@H](CC3CCCC3)C(=O)N[C@@H]([C@@H](C)CC)C(=O)N(C)CC(=O)N(C)[C@H]3C/C=C\CCN(C3=O)[C@@H](Cc3ccc(C(F)(F)F)cc3)C(=O)N(C)CC(=O)N[C@@H](CCc3cc(F)c(C(F)(F)F)c(F)c3)C(=O)N2C1 [PP1393],18.2,A (a compound having 10 or more and less than 20 is denoted as A),A (a compound having 10 or more and less than 20 is denoted as A)
CCO[C@@H]1C[C@H]2C(=O)NC3(CCC3)C(=O)N(C)[C@@H](C3CCCC3)C(=O)N(C)[C@H](C(=O)N3CCOCC3)CC(=O)N(C)[C@@H](CC3CCCC3)C(=O)N[C@@H]([C@@H](C)CC)C(=O)N(C)CC(=O)N(C)[C@H]3C/C=C\CCN(C3=O)[C@@H](Cc3ccc(C)cc3)C(=O)N(C)CC(=O)N[C@@H](CCc3cc(F)c(C(F)(F)F)c(F)c3)C(=O)N2C1 [PP1394],25.1,A (a compound having 10 or more and less than 20 is denoted as A),AA (a compound having 20 or more is denoted as AA)
CCCOC[C@H]1C(=O)N[C@@H]([C@@H](C)CC)C(=O)N(C)CC(=O)N(C)[C@H]2C/C=C\CCN(C2=O)[C@@H](Cc2ccc(C(F)(F)F)cc2)C(=O)N(C)CC(=O)N[C@@H](CCc2cc(F)c(C(F)(F)F)c(F)c2)C(=O)N2C[C@H](OCC)C[C@H]2C(=O)NC2(CCCC2)C(=O)N(C)[C@@H](C2CCCC2)C(=O)N(C)[C@H](C(=O)N2CCCC2)CC(=O)N1C [PP1399],18.8,A (a compound having 10 or more and less than 20 is denoted as A),A (a compound having 10 or more and less than 20 is denoted as A)
CCCOC[C@H]1C(=O)N[C@@H]([C@@H](C)CC)C(=O)N(C)CC(=O)N(C)[C@H]2C/C=C\CCN(C2=O)[C@@H](Cc2ccc(C)cc2)C(=O)N(C)CC(=O)N[C@@H](CCc2cc(F)c(C(F)(F)F)c(F)c2)C(=O)N2C[C@H](OCC)C[C@H]2C(=O)NC2(CCCC2)C(=O)N(C)[C@@H](C2CCCC2)C(=O)N(C)[C@H](C(=O)N2CCCC2)CC(=O)N1C [PP1401],34.4,A (a compound having 10 or more and less than 20 is denoted as A),A (a compound having 10 or more and less than 20 is denoted as A)

# Continued, in another order:
IC50 [2] [nM],SMILES,HRAS/KRAS (ratio of KD value for GDP-bound HRAS wild-type protein to KD value for KRAS) [1],NRAS/KRAS (ratio of KD value for GDP-bound NRAS wild-type protein to KD value for KRAS) [3]
82,CC[C@H](C)[C@@H]1NC(=O)[C@H](CC2CC2)N(C)C(=O)C[C@@H](C(=O)N(C)C)N(C)C(=O)[C@H](C2CCCC2)N(C)C(=O)C2(CCC2)NC(=O)[C@H](CCC(F)F)N(C)C(=O)[C@H](CCc2cc(F)c(C(F)(F)F)c(F)c2)NC(=O)CN(C)C(=O)[C@H](Cc2ccc(C(F)(F)F)cc2)N2CC/C=C\C[C@@H](C2=O)N(C)C(=O)CN(C)C1=O [PP1402],A (a compound having 10 or more and less than 20 is denoted as A),A (a compound having 10 or more and less than 20 is denoted as A)
111,CC[C@H](C)[C@@H]1NC(=O)[C@H](CC2CC2)N(C)C(=O)C[C@@H](C(=O)N(C)C)N(C)C(=O)[C@H](C2CCCC2)N(C)C(=O)C2(CCC2)NC(=O)[C@H](CC(F)F)N(C)C(=O)[C@H](CCc2cc(F)c(C(F)(F)F)c(F)c2)NC(=O)CN(C)C(=O)[C@H](Cc2ccc(C(F)(F)F)cc2)N2CC/C=C\C[C@@H](C2=O)N(C)C(=O)CN(C)C1=O [PP1403],A (a compound having 10 or more and less than 20 is denoted as A),AA (a compound having 20 or more is denoted as AA)
498,CC[C@H](C)[C@@H]1NC(=O)[C@H](CC2CC2)N(C)C(=O)C[C@@H](C)N(C)C(=O)[C@H](C2CCCC2)N(C)C(=O)C2(CCC2)NC(=O)[C@H](CCC(F)F)N(C)C(=O)[C@H](CCc2cc(F)c(C(F)(F)F)c(F)c2)NC(=O)CN(C)C(=O)[C@H](Cc2ccc(C(F)(F)F)cc2)N2CC/C=C\C[C@@H](C2=O)N(C)C(=O)CN(C)C1=O [PP1404],A (a compound having 10 or more and less than 20 is denoted as A),A (a compound having 10 or more and less than 20 is denoted as A)
466,CC[C@H](C)[C@@H]1NC(=O)[C@H](CC2CC2)N(C)C(=O)C[C@@H](C)N(C)C(=O)[C@H](C2CCCC2)N(C)C(=O)C2(CCC2)NC(=O)[C@H](CC(F)F)N(C)C(=O)[C@H](CCc2cc(F)c(C(F)(F)F)c(F)c2)NC(=O)CN(C)C(=O)[C@H](Cc2ccc(C(F)(F)F)cc2)N2CC/C=C\C[C@@H](C2=O)N(C)C(=O)CN(C)C1=O [PP1405],A (a compound having 10 or more and less than 20 is denoted as A),A (a compound having 10 or more and less than 20 is denoted as A)
37.6,CCO[C@@H]1C[C@H]2C(=O)NC3(CCC3)C(=O)N(C)[C@@H](C3CCCC3)C(=O)N(C)[C@H](C(=O)N3CCOCC3)CC(=O)N(C)[C@@H](CC3CC3)C(=O)N[C@@H]([C@@H](C)CC)C(=O)N(C)CC(=O)N(C)[C@H]3C/C=C\CCN(C3=O)[C@@H](Cc3ccc(C)cc3)C(=O)N(C)CC(=O)N[C@@H](CCc3cc(F)c(C(F)(F)F)c(F)c3)C(=O)N2C1 [PP1408],A (a compound having 10 or more and less than 20 is denoted as A),A (a compound having 10 or more and less than 20 is denoted as A)
43.5,CCO[C@@H]1C[C@H]2C(=O)NC3(CCC3)C(=O)N(C)[C@@H](C3CCCC3)C(=O)N(C)[C@H](C(=O)N3CCCC3)CC(=O)N(C)[C@@H](CC3CC3)C(=O)N[C@@H]([C@@H](C)CC)C(=O)N(C)CC(=O)N(C)[C@H]3C/C=C\CCN(C3=O)[C@@H](Cc3ccc(C)cc3)C(=O)N(C)CC(=O)N[C@@H](CCc3cc(F)c(C(F)(F)F)c(F)c3)C(=O)N2C1 [PP1409],A (a compound having 10 or more and less than 20 is denoted as A),A (a compound having 10 or more and less than 20 is denoted as A)
51,CCO[C@@H]1C[C@H]2C(=O)NC3(CCC3)C(=O)N(C)[C@@H](C3CCCC3)C(=O)N(C)[C@H](C)CC(=O)N(C)[C@@H](CC3CC3)C(=O)N[C@@H]([C@@H](C)CC)C(=O)N(C)CC(=O)N(C)[C@H]3C/C=C\CCN(C3=O)[C@@H](Cc3ccc(C)cc3)C(=O)N(C)CC(=O)N[C@@H](CCc3cc(F)c(C(F)(F)F)c(F)c3)C(=O)N2C1 [PP1410],B (a compound having 3 or more and less than 10 is denoted as B),B (a compound having 3 or more and less than 10 is denoted as B)
23,CCO[C@@H]1C[C@H]2C(=O)NC3(CCC3)C(=O)N(C)[C@@H](C3CCCC3)C(=O)N(C)[C@H](C(=O)N3CCCC3)CC(=O)N(C)[C@@H](CC3CCCC3)C(=O)N[C@@H]([C@@H](C)CC)C(=O)N(C)CC(=O)N(C)[C@H]3C/C=C\CCN(C3=O)[C@@H](Cc3ccc(C)cc3)C(=O)N(C)CC(=O)N[C@@H](CCc3cc(F)c(C(F)(F)F)c(F)c3)C(=O)N2C1 [PP1412],A (a compound having 10 or more and less than 20 is denoted as A),A (a compound having 10 or more and less than 20 is denoted as A)
